The supplement of paper PMC11368000

Columns and labels:
Details in all cases: exposure time: 90 min
1083 [1] = donor line of iPSC-derived cardiomyocytes; test: POD (EC95) for loss of peak frequency (asystole) vs vehicle; higher = less potent (higher point of departure)
Procedure: (§1)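 Human iPSC-derived cardiomyocytes from 16 donors were exposed for 90 min at 37 °C to each PFAS at 0.1, 1, 10 and 100 µM in 0.5% DMSO, 384-well plates. Kinetic Ca2+ flux (FLIPR) and Hoechst nuclei counts were normalised to vehicle wells and fitted with a hierarchical Bayesian Hill model to give donor-specific PODs: EC05 for beat-rate increase or decrease and for decay-to-rise ratio increase (QT proxy), EC95 for peak-frequency loss (asystole), EC10 for total cell number loss. 0.03 µM is the lower bound.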

11235 [2] = donor line of iPSC-derived cardiomyocytes; test: as above
Procedure: as §1

1368 [3] = donor line of iPSC-derived cardiomyocytes; test: as above
Procedure: as §1

1434 [4] = donor line of iPSC-derived cardiomyocytes; test: as above
Procedure: as §1

1535 [5] = donor line of iPSC-derived cardiomyocytes; test: as above
Procedure: as §1

20032 [6] = donor line of iPSC-derived cardiomyocytes; test: as above
Procedure: as §1

20084 [7] = donor line of iPSC-derived cardiomyocytes; test: as above
Procedure: as §1

30145 = donor line of iPSC-derived cardiomyocytes; test: as above
Procedure: as §1

30171 = donor line of iPSC-derived cardiomyocytes; test: as above
Procedure: as §1

1083 [8] = test: POD (EC10) for decrease in total cell number (cytotoxicity) vs vehicle; higher = less potent (higher point of departure)
Outline: (§2)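 Cardiomyocytes derived from human iPSCs of 16 donors were grown for 14 days in 384-well plates and then treated for 90 min at 37 °C with final concentrations of 0.1, 1, 10 and 100 µM in 0.5% DMSO. Once the Ca2+ flux read was done, the cells were stained for 15 min with Hoechst 33342 (2.2 µg/mL) and MitoTracker Orange, imaged at 10× on an ImageXpress Micro Confocal, and their nuclei counted per field in MetaXpress. Hierarchical Bayesian Hill fits to vehicle-normalised counts gave donor-specific cytotoxicity points of departure. These were set at a 10% decrease in counts.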

1118 = donor line of iPSC-derived cardiomyocytes; test: as above
Outline: as §2

11235 [9] = test: as above
Outline: as §2

1368 [10] = test: as above
Outline: as §2

1434 [11] = test: as above
Outline: as §2

1518 = donor line of iPSC-derived cardiomyocytes; test: as above
Outline: as §2

1531 = donor line of iPSC-derived cardiomyocytes; test: as above
Outline: as §2

1535 [12] = test: as above
Outline: as §2

1565 = donor line of iPSC-derived cardiomyocytes; test: as above
Outline: as §2

20032 [13] = test: as above
Outline: as §2

20084 [14] = test: as above
Outline: as §2

| Structure (SMILES) | POD vs vehicle 1083 [1] [µM] | POD vs vehicle 11235 [2] [µM] | POD vs vehicle 1368 [3] [µM] | POD vs vehicle 1434 [4] [µM] | POD vs vehicle 1535 [5] [µM] | POD vs vehicle 20032 [6] [µM] | POD vs vehicle 20084 [7] [µM] | POD vs vehicle 30145 [µM] | POD vs vehicle 30171 [µM] | POD vs vehicle 1083 [8] [µM] | POD vs vehicle 1118 [µM] | POD vs vehicle 11235 [9] [µM] | POD vs vehicle 1368 [10] [µM] | POD vs vehicle 1434 [11] [µM] | POD vs vehicle 1518 [µM] | POD vs vehicle 1531 [µM] | POD vs vehicle 1535 [12] [µM] | POD vs vehicle 1565 [µM] | POD vs vehicle 20032 [13] [µM] | POD vs vehicle 20084 [14] [µM] |
| --- | --- | --- | --- | --- | --- | --- | --- | --- | --- | --- | --- | --- | --- | --- | --- | --- | --- | --- | --- | --- |
| O=S(=O)(O)C(F)(F)C(F)(F)C(F)(F)C(F)(F)C(F)(F)C(F)(F)C(F)(F)C(F)(F)F [Perfluorooctanesulfonic_acid] | > 100 | 12.5 | > 100 | > 100 | > 100 | > 100 | > 100 | > 100 | > 100 | > 100 | > 100 | > 100 | > 100 | > 100 | > 100 | > 100 | > 100 | > 100 | > 100 | > 100 |
| OCCC(F)(F)C(F)(F)C(F)(F)C(F)(F)F [4:2 Fluorotelomer alcohol] | > 100 | > 100 | > 100 | > 100 | > 100 | > 100 | > 100 | > 100 | > 100 | > 100 | > 100 | > 100 | > 100 | > 100 | > 100 | > 100 | > 100 | > 100 | > 100 | > 100 |
| O=C(O)C(F)(F)C(F)(F)C(F)(F)C(F)(F)C(F)(F)C(F)(F)C(F)(F)C(F)(F)C(F)(F)C(F)(F)F [Perfluoroundecanoic_acid] | > 100 | 95.4 | > 100 | > 100 | > 100 | > 100 | > 100 | > 100 | > 100 | > 100 | > 100 | > 100 | > 100 | > 100 | > 100 | > 100 | > 100 | > 100 | > 100 | > 100 |
| NC(O)(C(F)(F)F)C(F)(F)F [2-Aminohexafluoropropan-2-ol] | > 100 | 72.8 | > 100 | > 100 | > 100 | > 100 | > 100 | > 100 | > 100 | > 100 | > 100 | > 100 | > 100 | > 100 | > 100 | > 100 | > 100 | > 100 | > 100 | > 100 |
| CN(CCO)S(=O)(=O)C(F)(F)C(F)(F)C(F)(F)C(F)(F)C(F)(F)C(F)(F)C(F)(F)C(F)(F)F [N-Methyl-N-(2-hydroxyethyl)perfluorooctanesulfonamide] | 65 | > 100 | > 100 | > 100 | > 100 | > 100 | > 100 | > 100 | 69.7 | > 100 | > 100 | > 100 | > 100 | > 100 | > 100 | > 100 | > 100 | > 100 | > 100 | > 100 |
| COC(=O)C(F)(F)C(F)(F)OC(F)(C(F)(F)F)C(F)(F)OC(F)=C(F)F (stereo unspecified) [Methyl_perfluoro(3-(1-ethenyloxypropan-2-yloxy)propanoate)] | > 100 | > 100 | > 100 | > 100 | > 100 | > 100 | > 100 | > 100 | > 100 | > 100 | > 100 | > 100 | > 100 | > 100 | > 100 | > 100 | > 100 | > 100 | 0.591 | > 100 |
| NC(=O)C(F)(F)C(F)(F)C(F)(F)C(F)F | > 100 | > 100 | > 100 | > 100 | > 100 | > 100 | > 100 | > 100 | > 100 | > 100 | > 100 | > 100 | > 100 | > 100 | > 100 | > 100 | > 100 | > 100 | > 100 | > 100 |
| O=C(O)C(F)(F)C(F)(F)C(F)(F)OC(F)(C(F)(F)F)C(F)(F)F [Perfluoro-4-isopropoxybutanoic_acid] | > 100 | > 100 | > 100 | > 100 | > 100 | > 100 | > 100 | > 100 | > 100 | > 100 | > 100 | > 100 | > 100 | > 100 | > 100 | > 100 | > 100 | > 100 | > 100 | > 100 |
| OCC(O)CC(F)(F)C(F)(F)C(F)(F)C(F)(F)C(F)(F)C(F)(F)C(F)(F)C(F)(F)F (stereo unspecified) [1-(Perfluorofluorooctyl)propane-2,3-diol] | > 100 | > 100 | > 100 | > 100 | > 100 | > 100 | > 100 | > 100 | > 100 | > 100 | > 100 | > 100 | > 100 | > 100 | > 100 | > 100 | > 100 | > 100 | > 100 | > 100 |
| NC(=O)C(F)(F)C(F)(F)C(F)(F)C(F)(F)F [Nonafluoropentanamide] | > 100 | > 100 | > 100 | > 100 | > 100 | > 100 | > 100 | > 100 | > 100 | > 100 | > 100 | > 100 | > 100 | > 100 | > 100 | > 100 | > 100 | > 100 | > 100 | > 100 |
| O=C(CC(=O)C(F)(F)C(F)(F)F)C(F)(F)F [3H,3H-Perfluoro-2,4-hexanedione] | > 100 | 87.4 | > 100 | 78.3 | > 100 | > 100 | > 100 | > 100 | 79.9 | > 100 | 25.1 | > 100 | > 100 | 21.9 | > 100 | > 100 | > 100 | > 100 | > 100 | > 100 |
| O=C(O)C(F)(F)C(F)(F)C(F)(F)F [Perfluorobutanoic_acid] | > 100 | > 100 | > 100 | > 100 | > 100 | > 100 | > 100 | > 100 | > 100 | > 100 | > 100 | > 100 | > 100 | > 100 | > 100 | > 100 | > 100 | > 100 | > 100 | > 100 |
| O=S(=O)(O)CCC(F)(F)C(F)(F)C(F)(F)C(F)(F)F [4:2 Fluorotelomer sulfonic acid] | > 100 | > 100 | > 100 | > 100 | > 100 | > 100 | > 100 | > 100 | > 100 | > 100 | > 100 | > 100 | > 100 | > 100 | > 100 | > 100 | > 100 | > 100 | > 100 | > 100 |
| O=C(O)C(F)(F)OC(F)(F)C(F)(F)OC(F)(F)C(F)(F)OC(F)(F)C(F)(F)C(F)(F)C(F)(F)F [Perfluoro-3,6,9-trioxatridecanoic_acid] | 79.4 | 92.2 | > 100 | 89.3 | > 100 | > 100 | > 100 | > 100 | 73 | > 100 | > 100 | > 100 | > 100 | 33.3 | > 100 | > 100 | > 100 | > 100 | > 100 | > 100 |
| O=C(O)C(F)(F)OC(F)(F)C(F)(F)OC(F)(F)C(=O)O [Perfluoro-3,6-dioxaoctane-1,8-dioic_acid] | > 100 | > 100 | > 100 | > 100 | > 100 | > 100 | > 100 | > 100 | > 100 | > 100 | > 100 | > 100 | > 100 | > 100 | > 100 | > 100 | > 100 | > 100 | > 100 | > 100 |
| OCC(F)(F)C(F)(F)C(F)(F)C(F)(F)C(F)(F)C(F)(F)F [6:1 Fluorotelomer alcohol] | 84.3 | 70.2 | > 100 | 75.4 | > 100 | > 100 | > 100 | > 100 | 80.8 | > 100 | 1.53 | > 100 | > 100 | 13.1 | – | > 100 | > 100 | > 100 | > 100 | > 100 |
| OCC(F)(F)OC(F)(F)C(F)(F)OC(F)(F)C(F)(F)OC(F)(F)F [Fluorinated_triethylene_glycol_monomethyl_ether] | > 100 | > 100 | > 100 | > 100 | > 100 | > 100 | > 100 | > 100 | > 100 | > 100 | > 100 | > 100 | > 100 | – | – | – | > 100 | > 100 | – | 0.358 |
| O=C(O)C(F)(F)C(F)(F)C(F)(F)C(F)(F)C(F)(F)C(F)(F)F [Perfluoroheptanoic_acid] | > 100 | > 100 | > 100 | > 100 | > 100 | > 100 | > 100 | > 100 | > 100 | > 100 | > 100 | > 100 | > 100 | – | 23.6 | > 100 | > 100 | > 100 | > 100 | 56.8 |
| O=C(O)C(F)(F)C(F)(F)C(F)(F)C(F)(F)C(=O)O [Octafluoroadipic_acid] | > 100 | > 100 | > 100 | > 100 | > 100 | > 100 | > 100 | > 100 | > 100 | > 100 | > 100 | > 100 | > 100 | 23.3 | – | > 100 | > 100 | – | – | > 100 |
